Test results from patent US5217953A, “Vasoactive intestinal peptide antagonist” (The United States of America as represented by the …, priority 1990, dated 1993).
Where two headings read alike, the source gives them in different places. No end group written: not given here.

Experiments:
[1] = molecular target: NSCLC VIP receptors (EPLC-65H membranes); assay: 125I-VIP binding to EPLC-65H membranes; conditions: for IC50 / Kd: EPLC-65H membranes; for IC50: 37° C., 60 min, read-out: IC50, inhibition of specific 125I-VIP binding
Experimental: The binding properties and the adenylate cyclase activity of the VIP receptor in NSCLC cell lines were investigated. NSCLC cells were cultured in RPMI-1640 containing 10% heat inactivated fetal bovine serum (Carney et al. (1985) Cancer Res. 45:2913-2923). When a monolayer formed, the adherent cells were washed with PBS and treated with trypsin/EDTA. The cells were pelleted and resuspended in serum supplemented medium and incubated at 37° C. in 5% CO2 /95% air. Routinely the cells were passed 1/1 weekly and experiments were conducted when the cells were in exponential growth phase.
Cells were rinsed twice in PBS. Membranes were prepared from EPLC-65H by lysing cells in 20 mM Tris.HCl (pH7.5), 1 mg/ml bacitracin, 1 mM PMSF and 0.25M sucrose. The cells were sonicated (15 sec, 120 W) and the membranes centrifuged at 500×g for 5 min in a Beckman J-21 B centrifuge at 4° C. The supernatant was saved and the pellet resuspended, homogenized and centrifuged. The supernatants were combined and centrifuged at 50,000×g for 30 min. The pellet, which contains plasma membranes, was resuspended and 50 μg of membrane protein and 2×10^5 cpm of ^125 I-VIP (2200 Ci/mmol) was added to each assay tube in a total volume of 100 μl; the buffer was 50 mM Tris.maleate, 2 mM MgCl2, 2% BSA, 500 KIU/ml trasylol and 0.2 mg/ml bacitracin. The samples were incubated at 37° C. for 60 min. To terminate the reaction, the incubation solution was centrifuged for 3 min in a microfuge B. The supernatant, which contained free peptide was removed and the top of the pellet rinsed three times with cold assay buffer. The pellet, which contained bound ^125 I-VIP was counted in a gamma counter.
^125 I was purchased from NEN. VIP was iodinated using the chloramine T procedure (Christophe et al. (1976) J. Biol. Chem. 251:4629-4634). ^125 I-VIP was purified using gel filtration techniques. VIP peptides were purchased from Peninsula Laboratories Inc. (San Carlos, Calif.).

[2] = tested on: castrated rats injected with testosterone; assay: Sexual behavior of castrated rats supplemented with testosterone; format: in vivo, rat
Experimental: Rats were castrated and injected with testosterone (4 μg/100 g BW) daily for 14 consecutive days. VIP (5 μg/animal) and the antagonists (30 μg/animal) were injected ip in a volume of 0.25 ml. Initial experiments were conducted using iv injections; however, as no significant differences were observed between iv and ip administration, ip injections were chosen in this model. When comparisons were made, the same group of rats was injected with one peptide and, after a period of at least 24 hr, with another peptide.

[3] = tested on: VIP receptor; assay: [125I]VIP binding to rat cortical astrocyte (glial) cell cultures; conditions: 60 pM [125I]VIP, intact cells, 4° C.; for displacement of VIP binding: 10 μM
Experimental: Rat cortical astrocyte cultures were prepared by previously described methods (Evans et al. (1984) J. Neurochem. 43:131; Brenneman et al.(1987) J. Cell Biol. 104:1603). VIP binding studies were conducted on intact cells at 4° C., using PBS containing 0.1% BSA. The cultures (1 mg protein/35 mm culture dish) were incubated with either VIP or the antagonist (10 μM to 1 pM) for 30 min before the addition of 60 pM [^125 I]VIP at Tyr-22 (2000 Ci/mmol; Amersham Corp., Arlington Heights, Ill). Labeled VIP was incubated with the cultures for 1 hr; the medium was then removed, and cells were washed three times by the addition and rapid removal of 1 ml PBS (at 4° C.). The labeled cells were dissolved in 0.02N NaOH and transferred for radioactivity counting.

[4] = tested on: NCI-H1246; assay: Soft agar colony formation, NCI-H1246; format: cell-based; conditions: 1 μM, 2 weeks
Experimental: (§1) In order to test whether the VIP-neurotensin hybrid antagonist inhibited the growth of NSCLC, single viable cells (10^4) were plated in soft agar in the absence and presence of 1 μM VIP-neurotensin hybrid antagonist. After 2 weeks, colonies were stained with a vital dye and live colonies (>[…]) counted. The colony fraction (colonies in the presence of the VIP-neurotensin hybrid antagonist relative to the number of basal colonies) was calculated. Cell lines NCI-H522, NCI-H838, and NCI-H1246 had colony fractions of 0.45±0.16, 0.76±0.04, and 1.47±0.30, respectively. The VIP-neurotensin hybrid antagonist inhibited colony formation of cell lines NCI-H522 and NCI-H838 but not NCI-H1246.

[5] = tested on: NCI-H522; assay: Soft agar colony formation, NCI-H522; format: cell-based; conditions: 1 μM, 2 weeks
Experimental: as §1

[6] = tested on: NCI-H838; assay: Soft agar colony formation, NCI-H838; format: cell-based; conditions: 1 μM, 2 weeks
Experimental: as §1

[7] = tested on: castrated rats; assay: Sexual behavior of castrated rats without testosterone supplementation; format: in vivo, rat
Excerpt: (§2) Male rats were sexually experienced Wistar-derived animals (250-300 g), approximately 3 months old from the Department of Hormone Research, Weizmann Institute of Science. All rats were kept in a 12-hr light, 12-hr dark cycle. Experiments were always conducted within the dark period 2-6 hrs after the onset of darkness. Before testing, each male was put in a separate cage for a period of at least 1 hr. A sexually receptive female (as tested by vaginal smearing) was introduced to each male. Latencies were defined as the intervals between copulatory behaviors (mounts and intromissions). These were recorded over a 15-min period. The latencies to the first copulatory event are reported separately.
After castration, the animals lose sexual activity in a time-dependent manner (Bradshaw et al. (1981) Endocrinology 109:1047; Reach et al. (1946) J. Exp. Zool. 101:91), and eventually all sexual activities are blocked. […] VIP (5 μg/animal) and the antagonists (30 μg/animal) were injected ip in a volume of 0.25 ml. Initial experiments were conducted using iv injections; however, as no significant differences were observed between iv and ip administration, ip injections were chosen in this model. When comparisons were made, the same group of rats was injected with one peptide and, after a period of at least 24 hr, with another peptide. The other parameters used for the experiment are described above.
The second paradigm was the castrated rat model.

[8] = tested on: pituitary-transplanted male rats; assay: Sexual behavior of pituitary-grafted gonadally intact male rats; format: in vivo, rat; conditions: 5 ug iv
Excerpt: as §2
This procedure results in hyperprolactinemia and a decrease in sexual potency in male rats. Pituitary-transplanted male rats (8 weeks after transplantation) were injected with 5 μg VIP, iv. As a control, saline iv was injected at identical volumes. The peptide was injected into the tail vein, restraining the animal by hand (two people were involved in the actual injection). The animals were subjected to the behavioral tests immediately after the injection. At least 24 hr elapsed between two consecutive tests per animal (i.e. between saline injection and VIP injection). The doses of VIP were deduced from those used to induce penile erection in men (Ottesen et al. (1984) Br. Med. J. 288:9). The statistical analysis involved a single test measurement per animal.

[9] = tested on: cAMP levels in 5M2 cells; assay: cAMP radioimmunoassay in 5M2 cells; format: cell-based; conditions: 5 min exposure
Experimental: The cAMP assays were performed by radioimmunoassay. 5M2 cells were exposed to stimuli in SIT medium (RPMI-1640 containing 10^-8 M Se2 O3, 1 μg/ml insulin and 3×10^-8 M transferrin) containing […] isobutyl-methyl-xanthine. After 5 min, the reaction was quenched by adding an equal volume of ice cold ethanol. The samples were vortexed and an aliquot of supernatant removed and added to 100 μl of 50 mM sodium acetate (pH 6.2). The sample (25 μl) was acetylated at 4° C. by adding 10 μl of triethylamine followed by 5 μl of acetic anhydride. Then 200 μl of goat anti-cyclic AMP antibody was added followed by 8,000 cpm of ^125 I-2-succinyl (tyrosine methyl ester)-cyclic AMP (NEN). After incubation for 16 hr at 4° C., 1 ml of charcoal suspension (2 mg/ml Norit-A charcoal in 100 mM phosphate buffer, pH 6.3, which contains 0.25% BSA) was added, the tubes vortexed and centrifuged at 1,500×g for 10 min. An aliquot (1 ml) of supernatant, which contains radiolabeled antigen-antibody complex, was counted in a gamma counter.

[10] = tested on: NSCLC VIP receptors (EPLC-65H membranes); assay: 125I-VIP binding to EPLC-65H membranes
[11] = coinjected ip with VIP at 3-fold molar excess

## GHRH: unlabeled peptide tested for specificity of 125I-VIP binding
[1]
  IC50: 20 nM

## LMYPTYLK [octamere]
[2]; coinjected with VIP (5 ug), 20-fold molar excess, 30 ug/animal ip
  effect on VIP-stimulated sexual behavior: specifically inhibited VIP effects on sexual behavior

## Lys-Pro-Arg-Arg-Pro-Tyr-Thr-Asp-Asn-Tyr-Thr-Arg-Leu-Arg-Lys-Gln-Met-Ala-Val-Lys-Lys-Tyr-Leu-Asn-Ser-Ile-Leu-Asn-NH2 (KPRRPYTDNYTRLRKQMAVKKYLNSILN-NH2) [VIP-neurotensin hybrid antagonist]
[3]; read-out: IC50, first binding site of biphasic displacement curve
  IC50: 0.05 nM
[3]; read-out: IC50, second binding site of biphasic displacement curve
  IC50: 100 nM
[3]
  displacement of VIP binding: 85-90%
[1]
  IC50: 10 nM
[2]; [11]
  effect on VIP-stimulated sexual activity: complete blockade of VIP activity
  sexual activity values lower than the control values: 2 fold
[2]; coinjected ip with VIP at 3-fold molar excess, 40±9 with VIP alone
  latency to the first copulatory event: 92 ± 20 s
[2]; injected by itself, 10 animals, from 1.66±0.12
  rate of copulatory events: 1.16±0.11
[2]; injected by itself, 10 animals, from 36.9±2.4
  intromission interval: 53.4 ± 8.6 s
[4]
  colony fraction (colonies with antagonist relative to basal colonies): 1.47±0.30
[5]
  colony fraction (colonies with antagonist relative to basal colonies): 0.45±0.16
[6]
  colony fraction (colonies with antagonist relative to basal colonies): 0.76±0.04

## VIP: a 28 amino acid peptide with an amidated C-terminal; widely distributed peptide hormone
[7]; 14 days after castration, 5 ug ip
  drop in the intervals between copulatory events (including latency to first intromission): 2- to 4 fold
[7]; 14 days after castration, 5 ug ip, six animals, 90±16 before
  intromission latency: 35 ± 2.4 s
[7]; model without testosterone supplementation, after VIP treatment
  animals that ejaculated: 1 of 6
[3]
  displacement of VIP binding: 75%
[1]
  IC50: 10 nM
[2]; 5 ug ip
  decrease in intervals (intromission latencies) between copulatory events: 2 fold
[2]; 5 ug ip, nine animals, 74±10 without VIP
  latency to the first intromission: 40 ± 9 s
[2]; 5 ug ip, vs saline injection
  increase in the rate of intromissions before ejaculation or end of test period: ~2 fold
[2]; after VIP treatment, 15 animals
  animals that ejaculated: 80-100%
[8]
  mean latency to the first mount and intromission: 23 ± 4 s
[8]; 15-min test, vs saline
  mean interval between copulatory events: significant reduction
  rate of copulation: significant increase
[8]; vs control
  decrease in the latency to the first intromission: 2- to 3 fold
[8]; 10-20% before treatment
  rats that ejaculated: all of the rats ejaculated
[9]
  ED50, increase of cAMP levels: 10 nM

## ^125 I-VIP: VIP iodinated using the chloramine T procedure; radiolabeled VIP
[10]
  time to half maximal specific binding (association): 20 min
  time to maximal specific binding (association): 60 min
[1]; read-out: Kd, high affinity site (Scatchard)
  Kd: 0.7 nM
[1]; read-out: Kd, low affinity site (Scatchard)
  Kd: 20 nM
[1]; after addition of 1 μM unlabeled VIP
  time at which half of the specific binding was reversed (dissociation): 40 min

## helodermin
[1]
  IC50: 100 nM

## peptide histidine isoleucine amide (HADGVFTSDYSRLLGQISAKKYLESLI-NH2; UniProt P01283 81-107, looked up) [PHI, cosynthesized with VIP on the same protein precursor]
[1]
  IC50: 80 nM
[2]; PHI by itself or VIP plus PHI equimolar
  average latency to intromissions and rate of copulatory events, difference from VIP by itself: 2 fold
[2]; in the presence of PHI, 5 ug iv
  animals that ejaculated: one of nine
[2]; peptide by itself (5 ug iv) or with VIP
  effect on rat sexual behavior: inhibited rat sexual behavior and VIP-induced rat sexual behavior

## secretin
[1]
  IC50: 300 nM
